# Measurements published in US12318403B2, “2′3′-cyclic dinucleotides and prodrugs thereof” (INSTITUTE OF ORGANIC CHEMISTRY AND BIOCHEMISTRY ASCR, V.V.I., priority 2019, dated 2025).
# pEC50: −log10 of the molar value. Like-named read-outs stand apart in the source and are kept apart here.
# Legend:
# [1] = target: human wild type STING (WT STING) (Homo sapiens, UniProt Q86WV6, H232R); experiment: 293T WT STING standard reporter assay; format: cell-based; conditions: standard reporter assay without digitonin, 7 hours, ISRE firefly luciferase
# [2] = test system: peripheral blood mononuclear cell (PBMC); experiment: Peripheral blood mononuclear cell assay; conditions: average of one to four donors
# Method: Selected compounds were tested in an in vitro peripheral blood mononuclear cell (PBMC) assay. […] Serially diluted tested compounds were added to wells in 50 μl of cultivation medium and cells were incubated with the compounds for 1h at 37° C. with 5% CO2. Plates with cells were then spun 500 g for 5 minutes and the medium was removed. Cells were washed twice with the cell culture medium by the use of centrifugation and gently resuspended in 100 μl medium without compounds. After 15 hour incubation at 37° C. with 5% CO2, the cell culture medium was collected and the levels of interferon-alpha (INF-α), interferon-gamma (INF-γ) and tumor necrosis factor-alpha (TNF-α) were determined with ProcartaPlex Assays (ThermoFisher, Waltham, USA) and MAGPIX System (Merck KGaA, Darmstadt, Germany). […] Values reported are an average of runs from one to four donors.
# [3] = 293T wtSTING-FL cells, read-out: 293T WT STING EC50
# [4] = PBMC, read-out: PBMC EC50 IFN-α, compounds 1h, washed, 15 hour incubation, interferon-alpha level in medium
# [5] = PBMC, read-out: PBMC EC50 IFN-γ, compounds 1h, washed, 15 hour incubation, interferon-gamma level in medium
# [6] = PBMC, read-out: PBMC EC50 TNF-α, compounds 1h, washed, 15 hour incubation, tumor necrosis factor-alpha level in medium
# [7] = 293T WT STING EC50, 293T wtSTING-FL cells
# [8] = read-out: PBMC EC50 IFN-α, compounds 1h, washed, 15 hour incubation, interferon-alpha level in medium
# [9] = read-out: PBMC EC50 TNF-α, compounds 1h, washed, 15 hour incubation, tumor necrosis factor-alpha level in medium
# Chain of human wild type STING (WT STING) (Q86WV6 whole entry H232R): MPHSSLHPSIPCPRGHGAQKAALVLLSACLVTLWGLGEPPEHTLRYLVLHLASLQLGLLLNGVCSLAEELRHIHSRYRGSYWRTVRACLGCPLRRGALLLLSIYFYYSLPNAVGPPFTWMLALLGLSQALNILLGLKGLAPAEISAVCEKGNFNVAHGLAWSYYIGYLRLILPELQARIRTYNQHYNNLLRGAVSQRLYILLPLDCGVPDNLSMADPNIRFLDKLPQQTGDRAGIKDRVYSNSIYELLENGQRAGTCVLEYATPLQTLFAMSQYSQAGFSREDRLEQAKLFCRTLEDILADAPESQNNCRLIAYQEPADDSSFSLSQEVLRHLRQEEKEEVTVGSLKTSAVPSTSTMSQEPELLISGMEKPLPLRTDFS
structure (smiles),measurement,setting,value
"CC(C)OC(=O)OCOP1(=O)CO[C@H]2[C@@H](F)[C@H](n3cnc4c(N)ncnc43)O[C@@H]2COP(=O)(OCOC(=O)OC(C)C)O[C@@H]2[C@H](F)[C@@H](CO1)O[C@H]2n1cnc2c(N)ncnc21 (single isomer, unassigned) [Compound 80a]",pEC50,[1]; [3],5.38
same,pEC50,[2]; [4],< 5.30
same,pEC50,[2]; [5],< 5.30
same,pEC50,[2]; [6],< 5.30
"CCCCCC(=O)Oc1ccc(CSP2(=O)CO[C@H]3[C@@H](F)[C@H](n4cnc5c(N)ncnc54)O[C@@H]3COP(=O)(O)O[C@@H]3[C@H](F)[C@@H](CO2)O[C@H]3n2cnc3c(=O)[nH]c(N)nc32)cc1 (single isomer, unassigned) [Compound 42a]",pEC50,[1]; [7],6.52
"CC(C)(C)C(=O)OCOP1(=O)CO[C@H]2[C@@H](F)[C@H](n3cnc4c(N)ncnc43)O[C@@H]2COP(=O)(OCOC(=O)C(C)(C)C)O[C@@H]2[C@H](F)[C@@H](CO1)O[C@H]2n1cnc2c(=O)[nH]cnc21 (single isomer, unassigned) [Compound 77a]",pEC50,[1]; [3],6.22
same,pEC50,[2]; [5],5.77
same,pEC50,[2]; [8],5.55
same,pEC50,[2]; [9],5.85
"CCCCCC(=O)Oc1ccc(C(=O)Oc2ccc(CSP3(=O)CO[C@H]4[C@@H](F)[C@H](n5cnc6c(N)ncnc65)O[C@@H]4COP(=O)(O)O[C@@H]4[C@H](F)[C@@H](CO3)O[C@H]4n3cnc4c(=O)[nH]c(N)nc43)cc2)cc1 (single isomer, unassigned) [Compound 49b]",pEC50,[1]; [7],5.35
"CC(C)(C)C(=O)Oc1ccc(CSP2(=O)CO[C@H]3[C@@H](F)[C@H](n4cnc5c(N)ncnc54)O[C@@H]3COP(=O)(O)O[C@@H]3[C@H](F)[C@@H](CO2)O[C@H]3n2cnc3c(=O)[nH]c(N)nc32)cc1 (single isomer, unassigned) [Compound 43a]",pEC50,[1]; [7],5.92
"CC(C)(C)C(=O)OCOP1(=O)CO[C@H]2[C@@H](F)[C@H](n3cnc4c(N)ncnc43)O[C@@H]2COP(=O)(OCOC(=O)C(C)(C)C)O[C@@H]2[C@H](F)[C@@H](CO1)O[C@H]2n1cnc2c(=O)[nH]cnc21 (single isomer, unassigned) [Compound 77b]",pEC50,[1]; [3],6.52
same,pEC50,[2]; [8],5.40
same,pEC50,"[2]; read-out: PBMC EC50 IFN-γ, compounds 1h, washed, 15 hour incubation, interferon-gamma level in medium",5.52
same,pEC50,[2]; [9],5.44
"CC(C)(C)C(=O)OCOc1ccc(CSP2(=O)CO[C@H]3[C@@H](F)[C@H](n4cnc5c(N)ncnc54)O[C@@H]3COP(=O)(O)O[C@@H]3[C@H](F)[C@@H](CO2)O[C@H]3n2cnc3c(=O)[nH]c(N)nc32)cc1 (single isomer, unassigned) [Compound 44b]",pEC50,[1]; [7],6.30
"CCCCCCCC(=O)Oc1ccc(CSP2(=O)CO[C@H]3[C@@H](F)[C@H](n4cnc5c(N)ncnc54)O[C@@H]3COP(=O)(O)O[C@@H]3[C@H](F)[C@@H](CO2)O[C@H]3n2cnc3c(=O)[nH]c(N)nc32)cc1 (single isomer, unassigned) [Compound 45a]",pEC50,[1]; [7],6.52
"CCCCCCCCCCCC(=O)OCSP1(=O)CO[C@H]2[C@@H](F)[C@H](n3cnc4c(N)ncnc43)O[C@@H]2COP(=O)(SCOC(=O)CCCCCCCCCCC)O[C@@H]2[C@H](F)[C@@H](CO1)O[C@H]2n1cnc2c(=O)[nH]c(N)nc21 (single isomer, unassigned) [Compound 78c]",pEC50,[1]; [7],7.22
same,pEC50,[2]; [4],5.47
same,pEC50,[2]; [9],5.52
"CC(C)(C)C(=O)Oc1ccc(CSP2(=O)CO[C@H]3[C@@H](F)[C@H](n4cnc5c(N)ncnc54)O[C@@H]3COP(=O)(O)O[C@@H]3[C@H](F)[C@@H](CO2)O[C@H]3n2cnc3c(=O)[nH]c(N)nc32)cc1 (single isomer, unassigned) [Compound 43b]",pEC50,[1]; [7],5.51
"CC(C)OC(=O)OCOP1(=O)CO[C@H]2[C@@H](F)[C@H](n3cnc4c(N)ncnc43)O[C@@H]2COP(=O)(OCOC(=O)OC(C)C)O[C@@H]2[C@H](F)[C@@H](CO1)O[C@H]2n1cnc2c(N)ncnc21 (stereo partly drawn) [Compound 80b, {[(1S,6R,8R,9R,10R,16R,18R,19R)-8,18-bis(6-amino-9H-purin-9-yl)-9,19-difluoro-3,13-dioxo-13-({[(propan-2-yloxy)carbonyl]oxy}methoxy)-2,4,7,11,14,17-hexaoxa-3λ^5,13λ^5-diphosphatricyclo[14.2.1.0^6,10]nonadecan-3-yl]oxy}methyl propan-2-yl carbonate]",pEC50,[1]; [3],6.05
same,pEC50,[2]; [4],5.89
same,pEC50,[2]; [5],5.80
same,pEC50,[2]; [6],5.82
"CC(C)(C)C(=O)OCSP1(=O)CO[C@H]2[C@@H](F)[C@H](n3cnc4c(N)ncnc43)O[C@@H]2COP(=O)(SCOC(=O)C(C)(C)C)O[C@@H]2[C@H](F)[C@@H](CO1)O[C@H]2n1cnc2c(=O)[nH]c(N)nc21 (single isomer, unassigned) [Compound 55c]",pEC50,[1]; [7],6.19
same,pEC50,[2]; [4],5.00
same,pEC50,[2]; [5],5.43
same,pEC50,[2]; [6],5.15
"CC(C)(C)C(=O)OCOP1(=O)CO[C@H]2[C@@H](F)[C@H](n3cnc4c(N)ncnc43)O[C@@H]2COP(=O)(OCOC(=O)C(C)(C)C)O[C@@H]2[C@H](F)[C@@H](CO1)O[C@H]2n1cnc2c(N)ncnc21 (single isomer, unassigned) [Compound 81c]",pEC50,[1]; [3],6.85
"CCCC(=O)Oc1ccc(CSP2(=O)CO[C@H]3[C@@H](F)[C@H](n4cnc5c(N)ncnc54)O[C@@H]3COP(=O)(O)O[C@@H]3[C@H](F)[C@@H](CO2)O[C@H]3n2cnc3c(=O)[nH]c(N)nc32)cc1 (single isomer, unassigned) [Compound 48b]",pEC50,[1]; [7],5.47
"CC(C)(C)C(=O)OCSP1(=O)CO[C@H]2[C@@H](F)[C@H](n3cnc4c(N)ncnc43)O[C@@H]2COP(=O)(SCOC(=O)C(C)(C)C)O[C@@H]2[C@H](F)[C@@H](CO1)O[C@H]2n1cnc2c(=O)[nH]c(N)nc21 (single isomer, unassigned) [Compound 55d]",pEC50,[1]; [7],6.52
"CCCCCCCCCC(=O)Oc1ccc(CSP2(=O)CO[C@H]3[C@@H](F)[C@H](n4cnc5c(N)ncnc54)O[C@@H]3COP(=O)(O)O[C@@H]3[C@H](F)[C@@H](CO2)O[C@H]3n2cnc3c(=O)[nH]c(N)nc32)cc1 (single isomer, unassigned) [Compound 46b]",pEC50,"[1]; read-out: 293T WT STING EC50, 293T wtSTING-FL cells",7.22
"CCCCCCCCCCCC(=O)Oc1ccc(CSP2(=O)CO[C@H]3[C@@H](F)[C@H](n4cnc5c(N)ncnc54)O[C@@H]3COP(=O)(O)O[C@@H]3[C@H](F)[C@@H](CO2)O[C@H]3n2cnc3c(=O)[nH]c(N)nc32)cc1 (single isomer, unassigned) [Compound 47a]",pEC50,[1]; [7],7.30
"CC(C)(C)C(=O)OCSP1(=O)CO[C@H]2[C@@H](F)[C@H](n3cnc4c(N)ncnc43)O[C@@H]2COP(=O)(O)O[C@@H]2[C@H](F)[C@@H](CO1)O[C@H]2n1cnc2c(=O)[nH]c(N)nc21 (single isomer, unassigned) [Compound 41a]",pEC50,[1]; [7],4.98
"CC(C)(C)C(=O)OCOc1ccc(CSP2(=O)CO[C@H]3[C@@H](F)[C@H](n4cnc5c(N)ncnc54)O[C@@H]3COP(=O)(O)O[C@@H]3[C@H](F)[C@@H](CO2)O[C@H]3n2cnc3c(=O)[nH]c(N)nc32)cc1 (single isomer, unassigned) [Compound 44a]",pEC50,[1]; [7],5.72
"CCCCCCCCCCCC(=O)Oc1ccc(CSP2(=O)CO[C@H]3[C@@H](F)[C@H](n4cnc5c(N)ncnc54)O[C@@H]3COP(=O)(O)O[C@@H]3[C@H](F)[C@@H](CO2)O[C@H]3n2cnc3c(=O)[nH]c(N)nc32)cc1 (single isomer, unassigned) [Compound 47b]",pEC50,[1]; [7],7.05
"CC(C)(C)C(=O)OCSP1(=O)CO[C@H]2[C@@H](F)[C@H](n3cnc4c(N)ncnc43)O[C@@H]2COP(=O)(O)O[C@@H]2[C@H](F)[C@@H](CO1)O[C@H]2n1cnc2c(=O)[nH]c(N)nc21 (single isomer, unassigned) [Compound 41b]",pEC50,[1]; [7],4.06
"CCCCCCCCCCCC(=O)OCSP1(=O)CO[C@H]2[C@@H](F)[C@H](n3cnc4c(N)ncnc43)O[C@@H]2COP(=O)(O)O[C@@H]2[C@H](F)[C@@H](CO1)O[C@H]2n1cnc2c(=O)[nH]c(N)nc21 (single isomer, unassigned) [Compound 76a]",pEC50,[1]; [7],6.52
"CCCCCCCC(=O)Oc1ccc(CSP2(=O)CO[C@H]3[C@@H](F)[C@H](n4cnc5c(N)ncnc54)O[C@@H]3COP(=O)(O)O[C@@H]3[C@H](F)[C@@H](CO2)O[C@H]3n2cnc3c(=O)[nH]c(N)nc32)cc1 (single isomer, unassigned) [Compound 45b]",pEC50,[1]; [7],6.82
"CSP1(=O)CO[C@H]2[C@@H](F)[C@H](n3cnc4c(N)ncnc43)O[C@@H]2COP(=O)(SC)O[C@@H]2[C@H](F)[C@@H](CO1)O[C@H]2n1cnc2c(=O)[nH]c(N)nc21 (stereo partly drawn) [Compound 52c, (1S,6R,8R,9R,10R,16R,18R,19R)-18-(2-amino-6-oxo-6,9-dihydro-1H-purin-9-yl)-8-(6-amino-9H-purin-9-yl)-9,19-difluoro-3,13-bis(methylsulfanyl)-2,4,7,11,14,17-hexaoxa-3λ^5,13λ^5-diphosphatricyclo[14.2.1.0^6,10]nonadecane-3,13-dione]",pEC50,[1]; [7],< 4.70
"CCCC(=O)Oc1ccc(CSP2(=O)CO[C@H]3[C@@H](F)[C@H](n4cnc5c(N)ncnc54)O[C@@H]3COP(=O)(O)O[C@@H]3[C@H](F)[C@@H](CO2)O[C@H]3n2cnc3c(=O)[nH]c(N)nc32)cc1 (single isomer, unassigned) [Compound 48a]",pEC50,[1]; [7],5.25
"CCCCCCCCCCCC(=O)OCSP1(=O)CO[C@H]2[C@@H](F)[C@H](n3cnc4c(N)ncnc43)O[C@@H]2COP(=O)(O)O[C@@H]2[C@H](F)[C@@H](CO1)O[C@H]2n1cnc2c(=O)[nH]c(N)nc21 (single isomer, unassigned) [Compound 76b]",pEC50,[1]; [7],7.52
